Here are results for 14 molecules from patent publication US11167015B2, “Arginine and its use as a T cell modulator” (INSTITUTE FOR RESEARCH IN BIOMEDICINE, priority 2016, dated 2021).

Each structure is given as a SMILES string.

One assay has as its system arginase. To be noted: arginase inhibition; cited from earlier work.
Assay [1] relates to human naïve CD4+ T cells. As to the kind of experiment: T cell proliferation (CellTrace Violet dilution). It counts as cell-based. How it is done:
(§1) FIG. 10. […] (A) Kinetics of T cell proliferation. Human naïve CD4+ T cells were labeled with CellTraceViolet (CTV) and activated in Ctrl medium or in L-Arg medium or in medium supplemented with 3 mM D-arginine or 3 mM L-arginine together with 3 mM L-lysine. Cell divisions were monitored at 48 h and 72 h by flow cytometry. (B) CTV-labeled CD4+ T cells were activated in normal medium or L-Arg medium and the dilution of CTV was measured over time by flow cytometry. n=5 from two donors. (C) 3H-L-arginine uptake by 3 day-activated CD4+ T cells during a 15 minutes pulse. Where indicated, 3 mM L-arginine, D-arginine or L-lysine was added to the culture medium as a competitive uptake inhibitor. n=7 for control, n=9 for L-Arg, n=5 for D-Arg, and n=9 for L-Lys. Bars represent the s.e.m.

Assay [2] has as its system activated CD4+ T cells. As to the kind of experiment: IL-2 withdrawal assay and assessment of cell viability, CD4+ T cells. To be noted: for survival of activated CD4+ T cells in the absence of exogenous cytokines: metabolites 3 mM, except for spermidine 0.1 mM, 5 days after IL-2 withdrawal. It counts as cell-based, human. As for the experimental part: Naïve CD4 T cells were activated with plate-bound CD3 and CD28 antibodies. 48 h after activation IL-2 was added to culture media (500 U ml^−1). After a further 3 days of culturing, cells were washed, counted and equal cell numbers were plated in medium devoid of IL-2. The withdrawal medium was no longer supplemented with e.g. L-arginine. Cell viability was assessed with annexin V.

The test system of assay [3] is activated CD4+ T cells. As to the kind of experiment: 3H-arginine uptake assay and calculation of proteome incorporation. It counts as cell-based, human. To be noted: 3 mM added as competitive uptake inhibitor, 15 minutes pulse, 3 day-activated CD4+ T cells. As for the experimental part: as §1
Assay [4] has as its system human naïve CD4+ T cells. As to the kind of experiment: kinetic metabolome analysis of activated T cells. It counts as cell-based. Particulars: added to the culture medium at the same concentration as L-arginine (3 mM).
Experimental: (B) Differential analysis of the glycolytic pathway between naïve CD4^+ T cells cultured in L-Arg medium or Ctrl medium, 96 h after activation. Log 2 fold changes of proteins and metabolites are color-coded. […] 3-P-Glycerate and 2-P-Glycerate could not be distinguished as they have the same mass. (C) 72 h-activated T cells were plated in fresh medium and glucose consumption was determined enzymatically after 24 h; n=9 from three donors. (D) Seahorse experiment performed with activated (96 h) T cells from one donor. Oligomycin was injected after 56 min, FCCP after 96 min, and antimycin (to inhibit the respiratory chain) after 136 min. Data are representative of 5 independent experiments with different donors.
(A) Human naïve CD4^+ T cells were activated in normal medium or in L-Arg medium. Nitric oxide formation was measured using DAF-FM diacetate at different time points.
Naïve CD4^+ T cells were either analyzed directly after isolation or at different time points after activation with CD3 and CD28 antibodies. Cells were washed twice in 96-well plates with 75 mM ammonium carbonate at pH 7.4 and snap frozen in liquid nitrogen. Metabolites were extracted three times with hot (>70° C.) 70% ethanol. Extracts were analyzed by flow injection—time of flight mass spectrometry on an Agilent 6550 QTOF instrument operated in the negative mode, as described previously (Fuhrer et al., 2011). Typically 5,000-12,000 ions with distinct mass-to-charge (m/z) ratio could be identified in each batch of samples. Ions were putatively annotated by matching their measured mass to that of the compounds listed by the KEGG database for Homo sapiens, allowing a tolerance of 0.001 Da. Only deprotonated ions (without adducts) were considered in the analysis. In case of multiple matching, such as in the case of structural isomers, all candidates were retained.
For the next assay, the system named is 96 h-activated T cells. As to the kind of experiment: 13C-L-arginine metabolic tracing (metabolic flux experiments). It counts as cell-based, human. To be noted: addition of arginase inhibitor, 13C6-L-arginine pulse. As for the experimental part: FIG. 2. L-arginine is rapidly metabolized upon activation (A) Intracellular abundance of L-arginine in non-activated (non-act) and activated naïve CD4^+ T cells (CD3+CD28 antibodies). Boxplot, n=30 from three donors, each in a different color; a.u. arbitrary units. (B) Kinetics of ^3H-L-arginine uptake during a 15 min pulse. Box plot, n=5 from three donors. (C) Uptake, proteome incorporation and intracellular abundance of the indicated amino acids. Barplot (left): 5×10^4 cells were activated for 4 days and consumption of amino acids from medium was analyzed. Essential amino acids are in grey; n=4 from four donors, error bars represent s.e.m. […] Heat map (right): Intracellular amino acid abundance relative to naive T cells over time as determined by MS; n=30 from three donors. […] Black dots are metabolites that were not detected by MS. Only enzymes that were detected by MS are shown. […] 96 h-activated T cells were pulsed with ^13C6-L-arginine and the metabolic fate was analyzed by LC-MS/MS at different time points. AFL, Apparent fractional labeling; n=4 from two donors. ^13C Citrulline was not detected.
Naïve CD4^+ T cells were activated and 4 days, later extensively washed and pulsed with L-arginine free RPMI medium containing 1 mM [U-^13C]-L-Arginine hydrochloride (Sigma). […] Metabolites were extracted and analyzed by HILIC LC-MS/MS. […]

For assay [5], the system named is C56BL/6 wild type (Wt) or Arg2−/− T cells. As to the kind of experiment: In vitro T cell survival with wild type or Arg2-/- mouse T cells. It is filed as cell-based. Particulars: norNOHA 500 μM, 2 days after IL-2 withdrawal.

Take `N[C@@H](CSCCB(O)O)C(=O)O` [BEC, S-(2-boronoethyl)-L-cysteine]: in the assay on arginase, the “intracellular L-arginine levels” value was “increase intracellular L-arginine levels”. For `N=C(N)NCCC[C@@H](N)C(=O)O` [D-arginine], in the assay on human naïve CD4+ T cells [1] (3 mM in medium), the onset of proliferation result is on record as “not affected”. In the assay with activated CD4+ T cells [2], the “survival of activated CD4+ T cells in the absence of exogenous cytokines” value (from here on “survival of activated CD4+ T cells”) is reported as “decreased T cell survival significantly”. Further, in the assay on activated CD4+ T cells [3], the L-arginine uptake result is on record as “inhibit L-arginine uptake”. Take `NC(=O)C1CCCc2c1[nH]c1ccc(Cl)cc21` (centres unmarked) [Ex-527]: in the assay on activated CD4+ T cells [2] (Ex-527 5 μM added at activation), the “L-arginine-mediated increase in survival in the presence of the Sirtuin-1 inhibitor” value is “comparable to controls”. As for `Cl.N=C(N)NCCC[C@H](N)C(=O)O` [L-arginine-HCl, L-arginine hydrochloride], the “survival of activated CD4+ T cells” value in the assay on activated CD4+ T cells [2] is “enhanced T cell survival to a similar extent”.

Consider `NC(=O)NCCC[C@H](N)C(=O)O` [L-citrulline, reference compound], for which the “survival of activated CD4+ T cells” value in the assay with activated CD4+ T cells [2] is “had no effect”. Also, in the assay with human naïve CD4+ T cells [4], the effects on metabolism result is listed as “only had minor effects”.

With `NCCCC[C@H](N)C(=O)O` [L-lysine], the onset of proliferation result in the assay with human naïve CD4+ T cells [1] (3 mM L-lysine added to L-arginine-supplemented cultures) is “not affected”. The “survival of activated CD4+ T cells” value with activated CD4+ T cells [2] is “decreased T cell survival significantly”. In the assay with activated CD4+ T cells [3], the L-arginine uptake result was “inhibit L-arginine uptake”.

With `N=C(N)NCCCCN` [agmatine], the “survival of activated CD4+ T cells” value with activated CD4+ T cells [2] was “decreased T cell survival”. Same read-out and setting: then `CN(CC(=O)O)C(=N)N` [creatine], with “had no effect”. With `[N]=O` [nitric oxide], the “T cell survival (role of nitric oxide)” value in the assay on activated CD4+ T cells [2] (nitric oxide synthase inhibitors DiMeArg or L-NAME at 1 mM) is “had no effect”.

As to `N=C(NO)NCC[C@H](N)C(=O)O` [norNOHA, N^ω-Hydroxy-nor-L-arginine], in the assay with 96 h-activated T cells, the “conversion of L-arginine into agmatine” value is given as “did not affect”; the “conversion of L-arginine into ornithine, putrescine, spermidine and proline” value is “markedly reduced”. Moreover, the “intracellular L-arginine levels” value with arginase is “increase intracellular L-arginine levels”. In assay [5], the “survival of Arg2−/− T cells after IL-2 withdrawal” value was “did not affect survival” and the “survival of wild type T cells after IL-2 withdrawal” value was “increasing the survival”.

For the molecule `O=C(O)[C@@H]1CCCN1` [proline, L-proline], the “survival of activated CD4+ T cells” value with activated CD4+ T cells [2] is “had no effect”. Still for that read-out and setting: the entry for `NCCCCN` [putrescine] is “decreased T cell survival”; for `NCCCCNCCCN` [spermidine] it is “decreased T cell survival”; for `NC(N)=O` [urea] it is “had no effect”.
